Measurements published in ChEMBL document CHEMBL5316297, “Mechanistic Insight of Synthesized 1,4-Dihydropyridines as an Antidiabetic Sword against Reactive Oxygen Species” (J Med Chem, 2023).

Columns and labels:
[1] = Cytotoxicity against human MCF-10F cells assessed as cell growth inhibition at 10 uM relative to control; format: toxicity, cell-based; details: read-out: GI
[2] = Cytotoxicity against human ECT1/E6E7 cells assessed as cell growth inhibition at 10 uM relative to control; format: toxicity, cell-based; details: read-out: GI
[3] = Cytotoxicity against HEK293 cells assessed as cell growth inhibition at 10 uM relative to control; format: toxicity, cell-based; details: human, read-out: GI
[4] = Cytotoxicity against human BJ cells assessed as cell growth inhibition at 10 uM relative to control; format: toxicity, cell-based; details: read-out: GI
[5] = Cytotoxicity against human HCN-1A cells assessed as cell growth inhibition at 10 uM relative to control; format: toxicity, cell-based; details: read-out: GI
[6] = Cytotoxicity against human THLE-2 cells assessed as cell growth inhibition at 10 uM relative to control; format: toxicity, cell-based; details: read-out: GI
[7] = Cytotoxicity against human WPE1-NA22 cells assessed as cell growth inhibition at 10 uM relative to control; format: toxicity, cell-based; details: read-out: GI
[8] = Cytotoxicity against human MRC5 cells assessed as cell growth inhibition at 10 uM relative to control; format: toxicity, cell-based; details: read-out: GI
[9] = system: voltage dependent L/T-type calcium channel; test: Inhibition of voltage dependent L/T-type calcium channel in human SH-SY5Y cells; details: sh-sy5y
[10] = system: INS1; test: Induction of apoptosis in rat INS1 cells assessed as total apoptotic cells at 1 uM incubated for 36 hrs by Annexin V-FITC/ propidium iodide staining based flow cytometry analysis (reference value: 0.53%); format: functional
[11] = system: INS1; test: Induction of apoptosis in rat INS1 cells assessed as early apoptotic cells at 1 uM incubated for 36 hrs by Annexin V-FITC/ propidium iodide staining based flow cytometry analysis (reference value: 0.34%); format: functional
[12] = system: INS1; test: Induction of apoptosis in rat INS1 cells assessed as necrotic cells at 1 uM incubated for 36 hrs by Annexin V-FITC/ propidium iodide staining based flow cytometry analysis (reference value: 1.15%); format: functional
[13] = system: INS1; test: Induction of apoptosis in rat INS1 cells assessed as late apoptotic cells at 1 uM incubated for 36 hrs by Annexin V-FITC/ propidium iodide staining based flow cytometry analysis (reference value: 0.19%); format: functional
[14] = system: Mus musculus; test: Antidiabetic activity against high fat diet-STZ-induced diabetic Swiss albino mouse model assessed as reduction in blood glucose level at 0.2 mmol/Kg/day, po administered for 14 days relative to control; format: functional; parameters: scale not given: the % may be the effect or the level left; details: time 14 day
[15] = system: Mus musculus; test: Antidiabetic activity against high fat diet-STZ-induced diabetic Swiss albino mouse model assessed as reduction in blood glucose level at 0.2 mmol/Kg/day, po administered for 14 days relative to glimepiride; format: functional; parameters: scale not given: the % may be the effect or the level left; details: time 14 day
[16] = Acute toxicity in Swiss albino mouse assessed as effect on motor alterations up to 2000 mg/kg, po administered for 14 days; format: organism-based; details: in vivo, 336 h, time 14 day
[17] = Acute toxicity in Swiss albino mouse assessed as effect on behavioural change up to 2000 mg/kg, po administered for 14 days; format: organism-based; details: in vivo, 336 h, time 14 day
[18] = system: Mus musculus; test: Antidiabetic activity against high fat diet-STZ-induced diabetic Swiss albino mouse model assessed as insulin resistance by measuring serum IL6 level at 0.2 mmol/Kg/day, po administered for 14 days by ELISA method (reference value: 39.30+/-4.14 pg/ml); format: functional; details: time 14 day
[19] = system: Mus musculus; test: Antioxidant activity against high fat diet-STZ-induced diabetic Swiss albino mouse model assessed as serum SOD level at 0.2 mmol/Kg/day, po administered for 14 days (reference value: 273.01+/- 6.23 U/ml); format: functional; details: time 14 day
[20] = system: Mus musculus; test: Antioxidant activity against high fat diet-STZ-induced diabetic Swiss albino mouse model assessed as serum catalase level at 0.2 mmol/Kg/day, po administered for 14 days (reference value: 378.22+/- 14.45 U/ml); format: functional; details: time 14 day
[21] = Acute toxicity in Swiss albino mouse assessed as effect on mortality up to 2000 mg/kg, po administered for 14 days; format: organism-based; details: in vivo, 336 h, time 14 day
[22] = system: Mus musculus; test: Antioxidant activity against high fat diet-STZ-induced diabetic Swiss albino mouse model assessed as serum MDA level at 0.2 mmol/Kg/day, po administered for 14 days (reference value: 8.70+/- 0.09 nmol/ml); format: functional; details: time 14 day
[23] = Acute toxicity in Swiss albino mouse assessed as toxic symptoms up to 2000 mg/kg, po administered for 14 days; format: organism-based; details: in vivo, 336 h, time 14 day
[24] = system: Mus musculus; test: Antidiabetic activity against high fat diet-STZ-induced diabetic Swiss albino mouse model assessed as insulin resistance by measuring serum TNFalpha level at 0.2 mmol/Kg/day, po administered for 14 days by ELISA method (reference value: 376.50+/-14.50 ng/ml); format: functional; details: time 14 day
[25] = system: Mus musculus; test: Antidiabetic activity against high fat diet-STZ-induced diabetic Swiss albino mouse model assessed as serum insulin level at 0.2 mmol/Kg/day, po administered for 14 days by ELISA method (reference value: 16.37 +/- 0.62 uU/ml); format: functional; details: time 14 day
[26] = Toxicity in high fat diet-STZ-induced diabetic Swiss albino mouse model assessed as changes in body weight at 0.2 mmol/Kg/day, po administered for 14 days (reference value: 26.6 to 27.8 g); format: organism-based; details: in vivo, 336 h, time 14 day
[27] = system: Mus musculus; test: Antidiabetic activity against high fat diet-STZ-induced diabetic Swiss albino mouse model assessed as reduction in blood glucose level at 0.2 mmol/Kg/day, po administered for 14 days; format: functional; details: time 14 day
[28] = Cytotoxicity against human HCN-1A cells assessed as cell growth inhibition; format: toxicity, cell-based
[29] = Cytotoxicity against human ECT1/E6E7 cells assessed as cell growth inhibition; format: toxicity, cell-based
[30] = Cytotoxicity against human THLE-2 cells assessed as cell growth inhibition; format: toxicity, cell-based
[31] = Cytotoxicity against HEK293 cells assessed as cell growth inhibition; format: toxicity, cell-based; details: human
[32] = Cytotoxicity against human MCF-10F cells assessed as cell growth inhibition; format: toxicity, cell-based
[33] = Cytotoxicity against human MRC5 cells assessed as cell growth inhibition; format: toxicity, cell-based
[34] = Cytotoxicity against human BJ cells assessed as cell growth inhibition; format: toxicity, cell-based
[35] = Cytotoxicity against human WPE1-NA22 cells assessed as cell growth inhibition; format: toxicity, cell-based
[36] = molecular target: T1, Alpha amylase (Homo sapiens, UniProt P0DUB6); test: Inhibition of alpha amylase (unknown origin) measured after 20 to 25 mins
T1 sequence (P0DUB6 whole entry): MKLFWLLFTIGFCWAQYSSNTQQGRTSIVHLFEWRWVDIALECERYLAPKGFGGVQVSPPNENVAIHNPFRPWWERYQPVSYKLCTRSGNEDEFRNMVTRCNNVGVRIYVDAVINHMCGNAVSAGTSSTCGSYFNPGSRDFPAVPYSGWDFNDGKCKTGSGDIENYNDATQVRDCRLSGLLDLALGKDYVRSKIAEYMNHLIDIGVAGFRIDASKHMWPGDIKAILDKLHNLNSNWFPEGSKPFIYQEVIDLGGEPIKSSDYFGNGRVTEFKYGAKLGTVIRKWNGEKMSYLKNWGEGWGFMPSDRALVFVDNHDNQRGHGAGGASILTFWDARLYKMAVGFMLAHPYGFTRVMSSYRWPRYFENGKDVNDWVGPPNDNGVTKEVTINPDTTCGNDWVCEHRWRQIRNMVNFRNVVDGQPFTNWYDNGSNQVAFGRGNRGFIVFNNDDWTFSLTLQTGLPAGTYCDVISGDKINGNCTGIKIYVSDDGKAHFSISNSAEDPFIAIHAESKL

| Structure (SMILES) | inhibition at 10 µM [1] [%] | inhibition at 10 µM [2] [%] | inhibition at 10 µM [3] [%] | inhibition at 10 µM [4] [%] | inhibition at 10 µM [5] [%] | inhibition at 10 µM [6] [%] | inhibition at 10 µM [7] [%] | inhibition at 10 µM [8] [%] | Activity [14] [%] | Activity [15] [%] | Activity [16] | Activity [17] | Activity [21] | Activity [23] | Activity [26] [g] | Activity [27] [mg/dL] | also measured |
| --- | --- | --- | --- | --- | --- | --- | --- | --- | --- | --- | --- | --- | --- | --- | --- | --- | --- |
| C[C@H]1O[C@H](O[C@H]2[C@H](O)[C@@H](O)[C@@H](O[C@H]3[C@H](O)[C@@H](O)C(O)O[C@@H]3CO)O[C@@H]2CO)[C@H](O)[C@@H](O)[C@@H]1N[C@H]1C=C(CO)[C@@H](O)[C@H](O)[C@H]1O (stereo partly specified) [ACARBOSE] | 10.5 | 20.1 | 80.7 | 47.8 | 44.3 | 19.1 | 55.3 | 32.3 | – | – | – | – | – | – | – | – | – |
| COC(=O)C1=C(C)NC(C)=C(C(=O)OC)C1c1ccccc1[N+](=O)[O-] [NIFEDIPINE] | – | – | – | – | – | – | – | – | – | – | – | – | – | – | – | – | IC50 [9]: 21.9 µM |
| CN(N=O)C(=O)N[C@@H](C=O)[C@@H](O)[C@H](O)[C@H](O)CO [STREPTOZOCIN] | – | – | – | – | – | – | – | – | – | – | – | – | – | – | – | – | Activity [10]: 2.09%; Activity [11]: 1.62%; Activity [12]: 11.65%; Activity [13]: 0.47% |
| CCOC(=O)C1=C(C)NC(C)=C(C(=O)OC(C)(C)C)C1c1cccc2c1OCO2 (stereo unspecified) | – | – | – | – | – | – | – | – | 0.25 | <1 | Non-Toxic | Non-Toxic | Non-Toxic | Non-Toxic | 28.6 | 223.65 | Activity [18]: 403.17 pg/mL; Activity [19]: 175.14 U/ml; Activity [20]: 183.21 U/ml; Activity [22]: 20.99 nmol/mL; Activity [24]: 1050.5 ng/mL; Activity [25]: 7.01 uU/ml |
| COc1cccc2c1C(=O)c1c(O)c3c(c(O)c1C2=O)C[C@@](O)(C(=O)CO)C[C@@H]3O[C@H]1C[C@H](N)[C@H](O)[C@H](C)O1 [DOXORUBICIN] | 41.6 | 33 | 46 | 45.8 | 40.9 | 35.6 | 57.1 | 38.4 | – | – | – | – | – | – | – | – | GI50 [28]: 11.2 µM; GI50 [29]: 1.47 µM; GI50 [30]: 17.1 µM; GI50 [31]: 9.69 µM; GI50 [32]: 14.2 µM; GI50 [33]: 12.5 µM; GI50 [34]: 8.91 µM; GI50 [35]: 11.6 µM |
| CCC1=C(C)CN(C(=O)NCCc2ccc(S(=O)(=O)NC(=O)N[C@H]3CC[C@H](C)CC3)cc2)C1=O [GLIMEPIRIDE] | 27.1 | 22 | 74 | 35.8 | 41.6 | 28.8 | 27.8 | 24.2 | 33.5 | – | – | – | – | – | 30.92 | 198.3 | Activity [10]: 0.76%; Activity [11]: 0.49%; Activity [18]: 195.75 pg/mL; Activity [19]: 202.06 U/ml; Activity [20]: 199.33 U/ml; Activity [22]: 14.52 nmol/mL; Activity [24]: 639.5 ng/mL; Activity [25]: 11.88 uU/ml; Activity [12]: 2.86%; Activity [13]: 0.27% |
| O=c1c(O)c(-c2ccc(O)c(O)c2)oc2cc(O)cc(O)c12 [QUERCETIN] | – | – | – | – | – | – | – | – | – | – | – | – | – | – | – | – | IC50 [36]: 8.21 µM |
| COC(=O)C1=C(C)NC(C)=C(C(=O)OCc2ccccc2)C1c1cccc2c1OCO2 (stereo unspecified) | – | – | – | – | – | – | – | – | 43.55 | 130 | Non-Toxic | Non-Toxic | Non-Toxic | Non-Toxic | 27.4 | 168.33 | – |
| COC(=O)C1=C(C)NC(C)=C(C(=O)OCc2ccccc2)C1c1ccc2c(c1)OCO2 (stereo unspecified) | – | – | – | – | – | – | – | – | 42.88 | 128 | Non-Toxic | Non-Toxic | Non-Toxic | Non-Toxic | 27.4 | 170.33 | – |
